Assay results: paper PMC3051820 (The Journal of Cell Biology, 2011)

Biological target: mitochondrial complex I (Mus musculus, UniProt P03888+Q91WD5+Q9DC70)
Assay: polarography: oxygen consumption in cells with complex I-specific substrates
Assay type: cell-based

Sequence of mitochondrial complex I (Q91VD9 24-727): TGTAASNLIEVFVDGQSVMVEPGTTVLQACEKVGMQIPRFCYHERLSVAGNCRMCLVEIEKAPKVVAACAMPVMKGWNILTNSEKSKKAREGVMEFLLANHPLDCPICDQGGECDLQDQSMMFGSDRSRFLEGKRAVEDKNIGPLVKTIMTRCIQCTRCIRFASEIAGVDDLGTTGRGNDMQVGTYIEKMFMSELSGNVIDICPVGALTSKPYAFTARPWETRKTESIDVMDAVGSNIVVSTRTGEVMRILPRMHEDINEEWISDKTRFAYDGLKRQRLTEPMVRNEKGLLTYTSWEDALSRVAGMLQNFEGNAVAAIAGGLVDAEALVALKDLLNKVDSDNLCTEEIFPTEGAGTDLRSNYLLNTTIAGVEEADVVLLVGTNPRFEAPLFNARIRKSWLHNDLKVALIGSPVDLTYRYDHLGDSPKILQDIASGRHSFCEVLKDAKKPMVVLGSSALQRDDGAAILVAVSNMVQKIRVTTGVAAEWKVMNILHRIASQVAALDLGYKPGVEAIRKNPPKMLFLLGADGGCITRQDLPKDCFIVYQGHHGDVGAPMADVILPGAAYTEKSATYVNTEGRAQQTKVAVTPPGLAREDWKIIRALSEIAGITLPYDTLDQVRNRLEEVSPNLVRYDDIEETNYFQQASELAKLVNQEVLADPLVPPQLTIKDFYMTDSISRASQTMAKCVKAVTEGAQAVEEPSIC
Sequence of mitochondrial complex I (Q91WD5 34-463): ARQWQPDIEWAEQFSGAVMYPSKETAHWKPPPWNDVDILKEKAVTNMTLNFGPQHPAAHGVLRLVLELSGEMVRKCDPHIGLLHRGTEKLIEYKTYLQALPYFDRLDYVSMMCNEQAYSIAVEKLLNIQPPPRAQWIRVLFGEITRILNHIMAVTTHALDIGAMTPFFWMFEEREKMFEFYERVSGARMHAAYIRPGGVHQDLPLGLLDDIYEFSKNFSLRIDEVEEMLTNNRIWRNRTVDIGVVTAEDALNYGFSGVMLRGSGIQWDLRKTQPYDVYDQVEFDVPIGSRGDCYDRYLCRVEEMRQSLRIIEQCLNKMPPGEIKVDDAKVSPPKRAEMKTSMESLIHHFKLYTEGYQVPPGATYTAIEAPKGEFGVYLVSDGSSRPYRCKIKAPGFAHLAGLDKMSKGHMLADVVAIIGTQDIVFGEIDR
Sequence of mitochondrial complex I (P03888 whole entry): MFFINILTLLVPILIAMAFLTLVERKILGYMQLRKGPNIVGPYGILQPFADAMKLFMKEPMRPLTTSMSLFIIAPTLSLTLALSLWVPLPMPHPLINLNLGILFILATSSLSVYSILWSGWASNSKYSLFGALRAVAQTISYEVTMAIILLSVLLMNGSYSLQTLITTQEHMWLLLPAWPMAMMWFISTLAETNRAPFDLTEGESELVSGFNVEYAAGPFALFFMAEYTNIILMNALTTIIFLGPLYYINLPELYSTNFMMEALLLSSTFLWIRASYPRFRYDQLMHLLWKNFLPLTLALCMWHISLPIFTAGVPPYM
Sequence of mitochondrial complex I (Q9DC70 36-224): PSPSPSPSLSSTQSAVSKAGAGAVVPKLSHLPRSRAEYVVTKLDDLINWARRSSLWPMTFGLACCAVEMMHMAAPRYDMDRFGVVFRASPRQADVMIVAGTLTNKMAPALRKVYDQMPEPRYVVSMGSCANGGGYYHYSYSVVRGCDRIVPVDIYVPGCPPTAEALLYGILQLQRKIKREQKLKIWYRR
Sequence of mitochondrial complex I (Q91YT0 21-464, further chain): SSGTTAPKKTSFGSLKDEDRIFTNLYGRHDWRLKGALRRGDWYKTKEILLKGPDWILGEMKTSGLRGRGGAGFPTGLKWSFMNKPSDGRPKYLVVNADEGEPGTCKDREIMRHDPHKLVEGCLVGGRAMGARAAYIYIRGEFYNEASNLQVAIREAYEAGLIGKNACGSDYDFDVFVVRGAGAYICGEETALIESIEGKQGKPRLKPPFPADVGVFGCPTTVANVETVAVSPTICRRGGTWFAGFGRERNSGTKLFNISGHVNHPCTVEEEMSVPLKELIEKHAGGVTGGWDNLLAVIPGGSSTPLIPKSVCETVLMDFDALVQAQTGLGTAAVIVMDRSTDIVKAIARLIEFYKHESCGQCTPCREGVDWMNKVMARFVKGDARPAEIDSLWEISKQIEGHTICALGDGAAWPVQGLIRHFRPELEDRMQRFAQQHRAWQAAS

Row | Compound | IC50 [nM]
1 | C/C=C(\C)[C@H](O)[C@H](C)/C=C(C)/C=C/C/C(C)=C/Cc1nc(OC)c(OC)c(O)c1C [piericidin A] | 10
2 | C=C(C)[C@H]1Cc2c(ccc3c2O[C@@H]2COc4cc(OC)c(OC)cc4[C@@H]2C3=O)O1 [rotenone] | 20
